Measured values: US12324798B1, “Leonurine nanocomposite hydrogel and preparation methods and applications thereof” (WEST CHINA HOSPITAL OF SICHUAN UNIVERSITY, priority 2023, dated 2025)

System: LPS-stimulated Raw264.7 cells
Test: Western blotting of pro-inflammatory cytokines
Assay type: cell-based
Conditions: WB; co-culture with LPS-stimulated Raw264.7 cells for 2 days; vs LPS
Experimental: In some embodiments, to assess whether M1 macrophage-targeted FA-PDA nanocarriers enhance the efficiency of anti-inflammatory therapy with loaded Leon, FA-PDA@Leon was co-cultured with LPS-stimulated Raw264.7 cells for 2 days, after which western blotting (WB) analysis was performed. A first group (Group 1) in FIG. 4G to FIG. 4J represents the control group (NC), a second group (Group 2) represents the LPS treatment, a third group (Group 3) represents the LPS and Leon co-treatment, a fourth group (Group 4) represents the LPS and PDA co-treatment, the fifth group (Group 5) represents the LPS and PDA@Leon co-treatment, and a sixth group (Group 6) indicates the LPS and FA-PDA@Leon co-treatment.

## COc1cc(C(=O)OCCCCNC(=N)N)cc(OC)c1O [Leon, leonurine]
  protein expression of pro-inflammatory cytokines (iNOS, IL-13, IL-6, TNF-α): down-regulated
